Measured values as given in ChEMBL document CHEMBL1143675, “Triterpenoids from Schisandra rubriflora” (J Nat Prod, 2007).
Converted amounts (≈) assume the structure as drawn.

How the values were obtained:
[1] = Cytotoxicity against C8166 cells after 72 hrs by MTT method; assay type: cell-based; settings: human
[2] = tested on: Human immunodeficiency virus 1; assay: Antiviral activity against HIV1 3B in C8166 cells; assay type: functional, organism-based; settings: Human immunodeficiency virus 1, 3B

COC(=O)C[C@H]1OC(C)(C)[C@@H]2C[C@H]3O[C@@]12C[C@]12CC[C@]4(C)C(=O)[C@@H](C)[C@@H]5[C@H]6OC(=O)[C@@H](C)[C@H]6O[C@@](O1)(C(=O)[C@H]32)[C@@H]54 [RUBRIFLORIN A]
CC50 at 72 h [1]: 89.1 mg/L (≈ 159 µM) | EC50 [2]: 10 mg/L (≈ 17.9 µM)

Cc1cn([C@H]2C[C@H](N=[N+]=[N-])[C@@H](CO)O2)c(=O)[nH]c1=O [ZIDOVUDINE]
CC50 at 72 h [1]: > 200 mg/L | EC50 [2]: 0.0043 mg/L (≈ 0.0161 µM)

COC(=O)C[C@H]1OC(C)(C)C2=C1C[C@]13CC[C@]4(C)C(=O)[C@@H](C)[C@@H]5[C@H]6OC(=O)[C@@H](C)[C@H]6O[C@@](O1)(C(=O)C3=CC2=O)[C@@H]54 [RUBRIFLORIN B]
CC50 at 72 h [1]: 100 mg/L (≈ 181 µM) | EC50 [2]: 16.2 mg/L (≈ 29.2 µM)

CCOC(=O)C[C@H]1OC(C)(C)C2=C1C[C@]13CC[C@]4(C)C(=O)[C@@H](C)[C@@H]5[C@H]6OC(=O)[C@@H](C)[C@H]6O[C@@](O1)(C(=O)C3=CC2=O)[C@@H]54 [RUBRIFLORIN C]
CC50 at 72 h [1]: > 200 mg/L | EC50 [2]: 81.3 mg/L (≈ 143 µM)
